According to publication PMC3466204 (PLoS ONE, 2012):
“And” between values parts separate entries of the source, which are not always exact repeats. Equal entries are not always repeated. Ends that are not written are not given here.

Tests used:
B. cereus DPC 6089 = test: Broth MIC, Gram positive; format: cell-based, Bacillus cereus; details: broth microtitre, BSA pre-treated plates, 10^5 cfu ml^−1, 2-fold dilutions from 10 µM, 16 h 37°C, purified peptide, mean of triplicate assays
Experimental: (§1) Minimum inhibitory concentration determinations for Gram positive organisms were carried out in triplicate in microtitre plates (Sarstedt). 96 well microtitre plates were pre-treated with bovine serum albumin (BSA) prior to addition of the peptides. Briefly, to each well of the microtitre plate 200 µL of phosphate buffered saline (PBS) containing 1% (w/v) bovine serum albumin (PBS/BSA) was added and incubated at 37°C for 30 min. The wells were washed with 200 µL PBS and allowed to dry. Target strains were grown overnight in the appropriate conditions and medium, subcultured into fresh broth and allowed to grow to an OD600 of ∼0.5, diluted to a final concentration of 10^5 cfu ml^−1 in a volume of 0.2 ml. Wild type nisin and nisin mutant peptides were adjusted to a 10 µM (S. mitis, B. cereus), 7.5 µM (L. monocytogenes), 5 µM (hVISA) 2.5 µM (MRSA, E. durans), or 500 nM (L. lactis strains) starting concentration and 2-fold serial dilutions of each peptide were added to the target strain.

B. cereus DPC 6088 = test: Broth MIC, Gram positive; format: cell-based, Bacillus cereus; details: broth microtitre, BSA pre-treated plates, 10^5 cfu ml^−1, 2-fold dilutions from 10 µM, 16 h 37°C, purified peptide, mean of triplicate assays
Experimental: as §1

E. durans 5133 = test: Broth MIC, Gram positive; format: cell-based, Enterococcus durans; details: broth microtitre, BSA pre-treated plates, 10^5 cfu ml^−1, 2-fold dilutions from 2.5 µM, 16 h 37°C, purified peptide, mean of triplicate assays
Experimental: as §1

C. sakazakii DPC 6440 [1] = test: Agarose gel diffusion assay, purified peptide; format: cell-based, Cronobacter sakazakii; details: purified peptide 60 µM; for Zone of inhibition, agarose gel diffusion: C. sakazakii DPC 6440, mean of triplicate assays
Experimental: (§2) Agarose-based deferred antagonism assays were carried out as follows: GM17/LB (0.03%) underlay was prepared with 10 mM sodium phosphate buffer (SPB) at pH 7.4 to which was added agarose (1% w/v agarose), autoclaved and cooled to 50°C. Bacteria grown to mid-logarithmic phase were harvested by centrifugation and washed with 10 mM SPB at pH 7.4. Bacteria were then added to 15 mls cooled underlay medium to reach a concentration of 2×10^7 colony-forming units (CFU)/mL. The inoculated medium was rapidly transferred into sterile Petri plates, allowed to solidify and dried. Wells (4.6 mm in diameter) were then made in the seeded plates. 10 µl volumes of cell-free supernatant from overnight nisin derivative producing cultures or resuspended purified peptides were then added to the wells and the plates incubated at 30°C (L. lactis) or 37°C (Gram positive strains) or RT (Gram negative strains) for 3 hours. Polymyxin B (Sigma Aldrich) was used at a concentration of 20 µg/ml. The plates were then overlaid with 15 mls of autoclaved double strength GM17 (L. lactis) or LB (Gram negatives) agarose (1% w/v agarose) overlay medium precooled to 50°C. The plates were then incubated overnight at the relevant temperature.

C. sakazakii DPC 6440 [2] = test: Broth MIC, Gram negative; format: cell-based, Cronobacter sakazakii; details: cells washed in 10 mM SPB pH 7.4, 2×10^5 CFU/mL, 2 h RT with peptide, then double strength LB, RT overnight, mean of triplicate assays
Experimental: (§3) Minimum inhibitory concentration determinations for Gram negative strains were carried out in triplicate in 96 well microtitre plates. Briefly, bacteria (E. coli, C. sakazakii and Salmonella) grown to mid-logarithmic phase were harvested by centrifugation, washed with 10 mM SPB at pH 7.4, and diluted to 2×10^5 colony-forming units (CFU)/mL in SPB. Nisin and nisin derivative peptides were resuspended in sterile HPLC water and 50 µL aliquots were added to wells containing 50 µL of 2×10^5 CFU of bacteria. Plates were incubated at RT for two hours with agitation. Double strength Luria–Bertani (LB) broth (100 µL) was added and the plates were incubated at RT overnight, the MIC was taken as the lowest concentration at which growth was inhibited.

S. mitis UCC5000 = test: Broth MIC, Gram positive; format: cell-based, Streptococcus mitis; details: broth microtitre, BSA pre-treated plates, 10^5 cfu ml^−1, 2-fold dilutions from 10 µM, 16 h 37°C, purified peptide, mean of triplicate assays
Experimental: as §1

[3] = test system: Salmonella enterica serovar Typhimurium UK1; test: Broth MIC, Gram negative; format: cell-based; details: cells washed in 10 mM SPB pH 7.4, 2×10^5 CFU/mL, 2 h RT with peptide, then double strength LB, RT overnight, mean of triplicate assays
Experimental: as §3

E. coli 0157-H7 [4] = test: Broth MIC, Gram negative; format: cell-based; details: cells washed in 10 mM SPB pH 7.4, 2×10^5 CFU/mL, 2 h RT with peptide, then double strength LB, RT overnight, mean of triplicate assays
Experimental: as §3

Lactococcus lactis HP = test: Agarose-based assay of cell-free supernatants of S29X producing strains; details: for Zone Diameter (mm): agarose (1%) GM17 assay, 10 µl cell-free supernatant of overnight producing culture in 4.6 mm wells, L. lactis HP, 30°C; for % difference (zone relative to wild type): agarose assay of supernatants against L. lactis HP, wild type serine = 100
Experimental: as §2

[5] = test system: Salmonella enterica serovar Typhimurium UK1; test: Agarose gel diffusion assay, purified peptide; format: cell-based; details: purified peptide 60 µM; for Zone of inhibition, agarose gel diffusion: Salmonella Typhimurium UK1, mean of triplicate assays
Experimental: as §2

E. coli 0157-H7 [6] = test: Agarose gel diffusion assay, purified peptide; format: cell-based; details: purified peptide 60 µM; for Zone of inhibition, agarose gel diffusion: E. coli 0157-H7, mean of triplicate assays
Experimental: as §2

C. sakazakii DPC 6440 [7] = test: Agarose gel diffusion assay, peptide alone or with polymyxin B nonapeptide (PMBN); format: cell-based, Cronobacter sakazakii; details: for Total area of inhibitory zone, peptide alone: purified peptide 30 µM alone; for Total area of inhibitory zone, peptide + PMBN: purified peptide 30 µM in combination with polymyxin B nonapeptide (PMBN) 20 µg/ml
Experimental: as §2
Polymyxin B (PMB) is a cyclic lipodecapaptide produced by bacteria of the genus Paenibacillus that acts primarily on the Gram negative cell wall, leading to rapid permeability changes in the cytoplasmic membrane and ultimately cell death. […] To that end, C. sakazakii DPC 6440 cells were treated with purified nisin A, S29G and S29A peptides alone (30 µM) or in combination with PMBN at a concentration of 20 µg/ml and determined the antimicrobial activity by agarose gel diffusion assay (Fig. 5). […] When used in combination with PMBN, a substantial synergistic effect was clearly evident (Fig. 5) but in this instance no significant difference in efficacy was observed between nisin A or either of the derivatives S29A or S29G.

L. lactis HP = test: Broth MIC, Gram positive; format: cell-based; details: broth microtitre, BSA pre-treated plates, 10^5 cfu ml^−1, 2-fold dilutions from 500 nM, 16 h, purified peptide, mean of triplicate assays
Experimental: as §1

[8] = test system: ST 530 (Methicillin resistant S. aureus); test: Broth MIC, Gram positive; format: cell-based; details: broth microtitre, BSA pre-treated plates, 10^5 cfu ml^−1, 2-fold dilutions from 2.5 µM, 16 h 37°C, purified peptide, mean of triplicate assays
Experimental: as §1

S. aureus RF122 = test: Broth MIC, Gram positive; format: cell-based; details: broth microtitre, BSA pre-treated plates, 10^5 cfu ml^−1, 2-fold dilutions, 16 h 37°C, purified peptide, mean of triplicate assays
Experimental: as §1

L. monocytogenes LO28 = test: Broth MIC, Gram positive; format: cell-based; details: broth microtitre, BSA pre-treated plates, 10^5 cfu ml^−1, 2-fold dilutions from 7.5 µM, 16 h 37°C, purified peptide, mean of triplicate assays
Experimental: as §1

[9] = test system: hVISA 32679 (heterogenous Vancomycin-intermediate S. aureus); test: Broth MIC, Gram positive; format: cell-based; details: broth microtitre, BSA pre-treated plates, 10^5 cfu ml^−1, 2-fold dilutions from 5 µM, 16 h 37°C, purified peptide, mean of triplicate assays
Experimental: as §1

L. monocytogenes 10403S = test: Broth MIC, Gram positive; format: cell-based; details: broth microtitre, BSA pre-treated plates, 10^5 cfu ml^−1, 2-fold dilutions from 7.5 µM, 16 h 37°C, purified peptide, mean of triplicate assays
Experimental: as §1

[10] = test system: ST 528 (Methicillin resistant S. aureus); test: Broth MIC, Gram positive; format: cell-based; details: broth microtitre, BSA pre-treated plates, 10^5 cfu ml^−1, 2-fold dilutions from 2.5 µM, 16 h 37°C, purified peptide, mean of triplicate assays
Experimental: as §1

L. lactis MG1363 [11] = test: Broth MIC, Gram positive; format: cell-based; details: broth microtitre, BSA pre-treated plates, 10^5 cfu ml^−1, 2-fold dilutions from 500 nM, 16 h, purified peptide, mean of triplicate assays
Experimental: as §1

L. lactis MG1363 [12] = details: truncated nisin, ref [36]; cited from earlier work
Excerpt: The increased efficacy resulted from a single mutation located at serine 29, within the C-terminal of nisin. The importance of Serine 29 for activity has previously been noted when Chan et al report ...

S. typhimurium UK-1 = test: Kill curve analysis; format: cell-based, Salmonella enterica serovar Typhimurium; details: 33 mg/L purified peptide, 2×10^5 cfu ml^−1, 37°C for 1 hour
Experimental: (§4) Using purified peptide in each case, 10 mM sodium phosphate buffer washed C. sakazakii, E. coli and Salmonella strains were diluted to a final concentration of 2×10^5 cfu ml^−1 and were exposed to nisin A, S29G and S29A at a concentration of 33 mg/L. Following incubation at 37°C for 1 hour, bacterial growth was monitored through plate counts.

E. coli = test: Kill curve analysis; format: cell-based; details: 33 mg/L purified peptide, 2×10^5 cfu ml^−1, 37°C for 1 hour
Experimental: as §4

C. sakazakii DPC 6440 [13] = test: Kill curve analysis; format: cell-based, Cronobacter sakazakii; details: 33 mg/L purified peptide, 2×10^5 cfu ml^−1, 37°C for 1 hour
Experimental: as §4

nisin A (ITSISLCTPGCKTGALMGCNMKTATCHCSIHVSK; thioether (positions not given here); not fully specified (residues 2, 5, 33, bridges); also: lantibiotic, ring and dehydro modifications not given here; UniProt P13068 24-57, looked up) [wild type lantibiotic bacteriocin purified from L. lactis NZ9700; serine at position 29, reference compound]
MIC (B. cereus DPC 6089): 8.38 mg/L and 2.5 µM
MIC (B. cereus DPC 6088): 8.38 mg/L and 2.5 µM
MIC (E. durans 5133): 0.52 mg/L and 0.156 µM
Zone of inhibition, agarose gel diffusion (C. sakazakii DPC 6440 [1]): 9.77±0.17 mm
MIC (C. sakazakii DPC 6440 [2]): 12.57 mg/L and 3.75 µM
MIC (S. mitis UCC5000): 8.38 mg/L and 2.5 µM
MIC [3]: > 100 mg/L and > 30 µM
MIC (E. coli 0157-H7 [4]): 50.28 mg/L and 15 µM
Zone Diameter (mm) (Lactococcus lactis HP): 15.2±0.2 mm
% difference (zone relative to wild type) (Lactococcus lactis HP): 100%
Zone of inhibition, agarose gel diffusion [5]: 9.88±0.11 mm
Zone of inhibition, agarose gel diffusion (E. coli 0157-H7 [6]): 9.81±0.04 mm
Total area of inhibitory zone, peptide alone (C. sakazakii DPC 6440 [7]): 40.0±2.3 mm^2
Total area of inhibitory zone, peptide + PMBN (C. sakazakii DPC 6440 [7]): 115.61±2.9 mm^2
MIC (L. lactis HP): 0.2 mg/L and 0.062 µM
MIC [8]: 0.52 mg/L and 0.156 µM
MIC (S. aureus RF122): 1.04 mg/L
MIC (S. aureus RF122; listed as NisinA): 0.312 µM
MIC (L. monocytogenes LO28): 6.28 mg/L and 1.875 µM
MIC [9]: 4.19 mg/L
MIC ([9]; listed as NisinA): 1.25 µM
MIC (L. monocytogenes 10403S): 12.57 mg/L and 3.75 µM
MIC [10]: 0.52 mg/L and 0.156 µM
MIC (L. lactis MG1363 [11]): 0.8 mg/L and 0.250 µM

nisin 1–28: truncated version of nisin, literature (ITSISLCTPGCKTGALMGCNMKTATCHC; ends and bridges not checked; cysteine pairing not given here; UniProt P13068 24-51, looked up, fragment)
fold reduced inhibitory activity relative to nisin (L. lactis MG1363 [12]): 100 fold

S29A: bioengineered nisin A derivative, serine 29 replaced by alanine (ITSISLCTPGCKTGALMGCNMKTATCHCAIHVSK; not fully specified (residues 2, 5, 33, bridges); cysteine pairing not given here; UniProt P13068 24-57, looked up, variant S29A)
MIC (B. cereus DPC 6089): 4.19 mg/L and 1.25 µM
MIC (B. cereus DPC 6088): 2 mg/L
Killing compared with nisin A (plate counts) (S. typhimurium UK-1): greater activity than wildtype nisin A
Killing compared with nisin A (plate counts) (E. coli): greater activity than wildtype nisin A
MIC (E. durans 5133): 0.13 mg/L and 0.039 µM
Zone of inhibition, agarose gel diffusion (C. sakazakii DPC 6440 [1]): 11.65±0.12 mm
Zone as % wt (C. sakazakii DPC 6440 [1]; C. sakazakii DPC 6440, relative to nisin A): 119 % wt
MIC (C. sakazakii DPC 6440 [2]): 6.28 mg/L and 1.875 µM
MIC (S. mitis UCC5000): 4.19 mg/L
Killing compared with nisin A (plate counts) (C. sakazakii DPC 6440 [13]): greater activity than wildtype nisin A
MIC [3]: 50.28 mg/L and 15 µM
MIC (E. coli 0157-H7 [4]): 25.14 mg/L and 7.5 µM
Zone Diameter (mm) (Lactococcus lactis HP): 16.6±0.3 mm
% difference (zone relative to wild type) (Lactococcus lactis HP): 109 (0.004) %
Zone of inhibition, agarose gel diffusion [5]: 11.29±0.23 mm
Zone as % wt ([5]; Salmonella Typhimurium UK1, relative to nisin A): 114 % wt
Zone of inhibition, agarose gel diffusion (E. coli 0157-H7 [6]): 11.50±0.05 mm
Zone as % wt (E. coli 0157-H7 [6]; E. coli 0157-H7, relative to nisin A): 117 % wt
Total area of inhibitory zone, peptide alone (C. sakazakii DPC 6440 [7]): 49.0±1.24 mm^2
Total area of inhibitory zone, peptide + PMBN (C. sakazakii DPC 6440 [7]): 121.5±6.3 mm^2
MIC (L. lactis HP): 0.1 mg/L and 0.031 µM
MIC [8]: 0.26 mg/L and 0.078 µM
MIC (S. aureus RF122): 0.52 mg/L and 0.156 µM
MIC (L. monocytogenes LO28): 3.14 mg/L and 0.937 µM
MIC [9]: 2 mg/L and 0.625 µM
MIC (L. monocytogenes 10403S): 6.28 mg/L and 1.875 µM
MIC [10]: 0.26 mg/L and 0.078 µM
MIC (L. lactis MG1363 [11]): 0.2 mg/L and 0.062 µM
